# Peptide text beside a SMILES is read from it. * marks the point of attachment. Dansyl = CN(C)c1cccc2c(S(=O)(=O)*)cccc12
# Tested on: P100 membrane fractions derived from Caco-2 cells
# Assay: Dansylated peptide ELISA: relative binding of PAX2 and HAX42 peptides to P100 (ratio to ZElan021)
# Conditions: ratio to ZElan021 = 1.00
# Method: The peptides and proteins were analyzed by a dansylated peptide ELISA method in which 96 well plates were coated overnight at 4° C. with 100 μl/well coating protein (normally 100 μg/ml P100 membrane fraction) in 0.05M carbonate buffer pH9.6. Nonspecific binding was blocked using 200 μl/well, 2% Marvel/PBS for 2 hours at 37° C. prior to incubation with dansylated peptides. The plates were washed three times with PBS/0.05% Tween 20 and after each subsequent incubation step. […] A buffer blank control was included to ensure that background binding to plastic was not due to the antibodies used in the assay system. […] The plates were then incubated with an anti-mouse X-HRP conjugated antibody (Southern Biotech 1060-05) at a 1:10,000 dilution in blocking solution, 100 μl/well for 1 hour at room temperature. Plates were developed using 75 μl/well Bionostics TMB substrate and incubated for approximately 10 minutes. The developing reaction was stopped using Bionostics Red Stop solution (25 μl/well), and the optical density of the plates was read at 650nm.
# [1] = PAX2 peptides, first 20 μg/ml column
# [2] = PAX2 peptides, first 50 μg/ml column
# [3] = PAX2 peptides, second 50 μg/ml column
# [4] = HAX42 peptides, first 50 μg/ml column
# [5] = HAX42 peptides, second 50 μg/ml column
Structure (SMILES),Binding value at 20 μg/ml [1],Binding value at 50 μg/ml [2],Binding value at 50 μg/ml [3],"Binding value at 20 μg/ml (PAX2 peptides, second 20 μg/ml column)",Binding value at 20 μg/ml (HAX42 peptides),Binding value at 50 μg/ml [4],Binding value at 50 μg/ml [5],Binding value at 50 μg/ml (Jackson Ab) (PAX2 peptides),Binding value at 50 μg/ml (Southern Ab) (PAX2 peptides)
"CC(C)C[C@H](NC(=O)[C@H](CCCNC(=N)N)NC(=O)[C@H](CCCNC(=N)N)NC(=O)[C@@H](N)CCCCNS(=O)(=O)c1cccc2c(N(C)C)cccc12)C(=O)N[C@@H](CCCNC(=N)N)C(=O)N[C@H](C(=O)N[C@@H](CCCNC(=N)N)C(N)=O)[C@@H](C)O [ZElan058, H2N—K(dns)RRLRTR—CONH2] (H-K(Dansyl)RRLRTR-NH2)",0.05,0.47,0.16,,,,,,
CC(C)C[C@H](NC(=O)[C@H](CCCNC(=N)N)NC(=O)[C@H](CCCNC(=N)N)NC(=O)[C@@H](N)CCCCNS(=O)(=O)c1cccc2c(N(C)C)cccc12)C(=O)N[C@@H](CCCNC(=N)N)C(=O)N[C@H](C(=O)N[C@@H](CCCNC(=N)N)C(=O)N[C@@H](CO)C(=O)N[C@@H](CCCNC(=N)N)C(=O)N1CCC[C@H]1C(=O)N[C@@H](CC(N)=O)C(N)=O)[C@@H](C)O [ZElan056] (H-K(Dansyl)RRLRTRSRPN-NH2),0.00,0.21,0.21,0.16,,,,,
CC(C)[C@H](NC(=O)[C@H](CCCCN)NC(=O)[C@H](CCCNC(=N)N)NC(=O)[C@@H](N)CCCCNS(=O)(=O)c1cccc2c(N(C)C)cccc12)C(=O)N[C@@H](Cc1ccccc1)C(=O)N[C@@H](CC(N)=O)C(=O)N[C@@H](CCCNC(=N)N)C(=O)N[C@@H](CCCNC(=N)N)C(=O)N[C@@H](CCCNC(=N)N)C(=O)N1CCC[C@H]1C(=O)N[C@@H](CO)C(N)=O [ZElan065] (H-K(Dansyl)RKVFNRRRPS-NH2),,,,,0.00,0.54,0.30,,
CC(C)C[C@H](NC(=O)[C@H](CC(N)=O)NC(=O)[C@@H](N)CCCCNS(=O)(=O)c1cccc2c(N(C)C)cccc12)C(=O)N[C@@H](CCCNC(=N)N)C(=O)N[C@@H](CO)C(=O)N[C@@H](CC(=O)O)C(=O)N[C@@H](CC(N)=O)C(=O)N[C@@H](C)C(=O)N[C@@H](CCCCN)C(=O)N[C@@H](CCC(=O)O)C(=O)N1CCC[C@H]1C(=O)NCC(=O)N[C@@H](CC(=O)O)C(=O)N[C@@H](Cc1ccc(O)cc1)C(=O)N[C@@H](CC(N)=O)C(=O)N[C@@H](CS)C(=O)N[C@@H](CS)C(=O)NCC(=O)N[C@@H](CC(N)=O)C(=O)NCC(=O)N[C@@H](CC(N)=O)C(=O)N[C@@H](CO)C(=O)N[C@H](C(=O)NCC(=O)N[C@@H](CCCNC(=N)N)C(=O)N[C@@H](CCCCN)C(=O)N[C@H](C(=O)N[C@@H](Cc1ccccc1)C(=O)N[C@@H](CC(N)=O)C(=O)N[C@@H](CCCNC(=N)N)C(N)=O)C(C)C)[C@@H](C)O [ZElan071] (H-K(Dansyl)NLRSDNAKEPGDYNCCGNGNSTGRKVFNR-NH2),,,,,1.22,0.89,0.75,,
CC(C)C[C@H](NC(=O)[C@H](CCCNC(=N)N)NC(=O)[C@H](CCCNC(=N)N)NC(=O)[C@H](CC(N)=O)NC(=O)[C@H](Cc1c[nH]cn1)NC(=O)[C@H](CO)NC(=O)[C@H](CO)NC(=O)[C@@H](N)CCCCNS(=O)(=O)c1cccc2c(N(C)C)cccc12)C(=O)N[C@@H](CCCNC(=N)N)C(=O)N[C@H](C(=O)N[C@@H](C)C(N)=O)[C@@H](C)O [ZElan082] (H-K(Dansyl)SSHNRRLRTA-NH2),0.00,0.92,0.40,,,,,,
CC(C)C[C@H](NC(=O)[C@H](CCCNC(=N)N)NC(=O)[C@H](C)NC(=O)[C@H](CC(N)=O)NC(=O)[C@H](Cc1c[nH]cn1)NC(=O)[C@H](CO)NC(=O)[C@H](CO)NC(=O)[C@@H](N)CCCCNS(=O)(=O)c1cccc2c(N(C)C)cccc12)C(=O)N[C@@H](CCCNC(=N)N)C(=O)N[C@H](C(=O)N[C@@H](CCCNC(=N)N)C(N)=O)[C@@H](C)O [ZElan077] (H-K(Dansyl)SSHNARLRTR-NH2),0.20,0.76,0.54,,,,,0.73,0.52
CC(C)C[C@H](NC(=O)[C@H](CCCNC(=N)N)NC(=O)[C@H](CCCNC(=N)N)NC(=O)[C@H](CC(N)=O)NC(=O)[C@H](C)NC(=O)[C@H](CO)NC(=O)[C@H](CO)NC(=O)[C@@H](N)CCCCNS(=O)(=O)c1cccc2c(N(C)C)cccc12)C(=O)N[C@@H](CCCNC(=N)N)C(=O)N[C@H](C(=O)N[C@@H](CCCNC(=N)N)C(N)=O)[C@@H](C)O [ZElan075] (H-K(Dansyl)SSANRRLRTR-NH2),0.13,0.52,0.38,,,,,0.47,0.32
C[C@H](NC(=O)[C@H](CCCNC(=N)N)NC(=O)[C@H](CCCNC(=N)N)NC(=O)[C@H](CC(N)=O)NC(=O)[C@H](Cc1c[nH]cn1)NC(=O)[C@H](CO)NC(=O)[C@H](CO)NC(=O)[C@@H](N)CCCCNS(=O)(=O)c1cccc2c(N(C)C)cccc12)C(=O)N[C@@H](CCCNC(=N)N)C(=O)N[C@H](C(=O)N[C@@H](CCCNC(=N)N)C(N)=O)[C@@H](C)O [ZElan079] (H-K(Dansyl)SSHNRRARTR-NH2),0.31,0.97,0.68,,,,,0.83,0.53
CC(C)C[C@H](NC(=O)[C@H](C)NC(=O)[C@H](Cc1c[nH]cn1)NC(=O)[C@H](CC(=O)O)NC(=O)[C@H](CO)NC(=O)[C@@H](N)CCCCNS(=O)(=O)c1cccc2c(N(C)C)cccc12)C(=O)NCC(=O)N[C@H](C(=O)N[C@@H](CC(N)=O)C(=O)N[C@@H](CC(C)C)C(=O)N[C@@H](CCCNC(=N)N)C(=O)N[C@@H](CO)C(=O)N[C@@H](CC(=O)O)C(=O)N[C@@H](CC(N)=O)C(=O)N[C@@H](C)C(=O)N[C@@H](CCCCN)C(=O)N[C@@H](CCC(=O)O)C(=O)N1CCC[C@H]1C(=O)NCC(=O)N[C@@H](CC(=O)O)C(=O)N[C@@H](Cc1ccc(O)cc1)C(=O)N[C@@H](CC(N)=O)C(=O)N[C@@H](CS)C(=O)N[C@@H](CS)C(=O)NCC(=O)N[C@@H](CC(N)=O)C(=O)NCC(=O)N[C@@H](CC(N)=O)C(=O)N[C@@H](CO)C(=O)N[C@H](C(N)=O)[C@@H](C)O)[C@@H](C)O [ZElan070] (H-K(Dansyl)SDHALGTNLRSDNAKEPGDYNCCGNGNST-NH2),,,,,0.59,0.97,0.39,,
CC(C)C[C@H](NC(=O)[C@H](CCCNC(=N)N)NC(=O)[C@H](CCCNC(=N)N)NC(=O)[C@@H](N)CCCCNS(=O)(=O)c1cccc2c(N(C)C)cccc12)C(=O)N[C@@H](CCCNC(=N)N)C(=O)N[C@H](C(=O)N[C@@H](CCCNC(=N)N)C(=O)N[C@@H](CO)C(=O)N[C@@H](CCCNC(=N)N)C(N)=O)[C@@H](C)O [ZElan057] (H-K(Dansyl)RRLRTRSR-NH2),0.08,0.56,0.25,,,,,,
"CN(C)c1cccc2c(S(=O)(=O)NCCCC[C@H](N)C(=O)N[C@@H](CC(N)=O)C(=O)N[C@@H](CCCNC(=N)N)C(=O)N[C@@H](CCCNC(=N)N)C(=O)N[C@@H](CCCNC(=N)N)C(=O)N3CCC[C@H]3C(=O)N[C@@H](CO)C(N)=O)cccc12 [ZElan067, H2N—K(dns)NRRRPS—CONH2] (H-K(Dansyl)NRRRPS-NH2)",,,,,0.08,0.52,0.40,,
CC(C)C[C@H](NC(=O)[C@H](CCCNC(=N)N)NC(=O)[C@H](CCCNC(=N)N)NC(=O)[C@H](CC(N)=O)NC(=O)[C@H](Cc1c[nH]cn1)NC(=O)[C@H](CO)NC(=O)[C@H](C)NC(=O)[C@@H](N)CCCCNS(=O)(=O)c1cccc2c(N(C)C)cccc12)C(=O)N[C@@H](CCCNC(=N)N)C(=O)N[C@H](C(=O)N[C@@H](CCCNC(=N)N)C(N)=O)[C@@H](C)O [ZElan073] (H-K(Dansyl)ASHNRRLRTR-NH2),0.07,−0.11,0.49,,,,,0.66,0.49
CC(C)C[C@H](NC(=O)[C@H](CCCNC(=N)N)NC(=O)[C@H](CCCNC(=N)N)NC(=O)[C@H](C)NC(=O)[C@H](Cc1c[nH]cn1)NC(=O)[C@H](CO)NC(=O)[C@H](CO)NC(=O)[C@@H](N)CCCCNS(=O)(=O)c1cccc2c(N(C)C)cccc12)C(=O)N[C@@H](CCCNC(=N)N)C(=O)N[C@H](C(=O)N[C@@H](CCCNC(=N)N)C(N)=O)[C@@H](C)O [ZElan076] (H-K(Dansyl)SSHARRLRTR-NH2),0.08,1.00,0.41,,,,,0.60,0.42

# From patent US6703362B1, “Random peptides that bind to gastro-intestinal tract (GIT) transport receptors and related methods” (Cytogen Corporation, priority 1997, dated 2004)
